In patent publication US8653049B2, “Normuramyl glycopeptide compounds” (priority 2008, dated 2014):
Like-named read-outs stand apart in the source and are kept apart here.

Legend:
bone-marrow cells = test: Restoration of bone-marrow proliferation in azathioprine-suppressed mice; assay type: in vivo, CBA/J mice; set-up: key: +: restoration under the level of intact bone-marrow response; ++: restoration above the level of intact bone-marrow response; settings: two i.v. doses of 200 nmol 30 and 6 h before oral azathioprine 5 mg per mouse; bone marrow 66 h after
Procedure: CBA/J male mice 8 weeks old, weighing 18-20 g were administered two i.v. doses of 200 nmol test substance per mouse 30 and 6 h prior to oral application of azathioprine (Imuran Wellcome, 5 mg per mouse in a volume of 0.5 ml distilled water). Bone marrow (lavage of femurs) was sampled 66 h after the application of azathioprine. Pooled suspensions of bone-marrow cells from 3 mice were cultivated in RPMI-1640 medium with 5% of fetal bovine serum (both from Sigma) at a concentration of 2×10^5 cells/0.2 ml either without mitogen (spontaneous proliferation) or in the presence of T (phytohemagglutinin, PHA Murex, 50 μg/ml; concanavalin A, Con A Sigma, 1, 2.5 or 5 μg/ml) or B (lipopolysaccharide, LPS E. coli O55 Difco, 5 μg/ml) mitogens for 48 h at 37° C. in 5% CO2. Proliferative activity was measured by incorporation of 3H-thymidine (1 μCi/well) and expressed as stimulation index SI=mean cpm cultures with mitogen/mean cpm controls without mitogen. Statistical significance of stimulation was evaluated by the Student's t test.

[1] = system: myelin basic protein induced EAE; test: Experimental allergic encephalomyelitis (EAE), Th1 adjuvant activity; assay type: in vivo, guinea pigs; settings: for Positive animals (%) (incidence of EAE): 50 μg myelin basic protein + 1 mg test compound in FIA, footpads, up to day 21, FCA positive control
[2] = rabbits, 3 rabbits per group
Procedure: The test was conducted in an authorised laboratory, ITEST plus s.r.o., Bilé Vchýnice 10, 533 13 Vápno u Prelouce, Czech Republic, according to guide-lines CL 2005.
Rabbits (New Zeeland albino, 4-6 kg, 3 animals per group) were used for testing.
Liposomal preparations of muramyl glycopeptide derivatives were administered s.c. (100 nmol/kg). Empty liposomes were used as negative control and the liposomal as well as the free form of muramyl dipeptide (MDP) (25 μg/kg, corresponding to 50.7 nmol/kg) served as positive control. Temperature was measured in 1, 2, 3, 4,6 and 24 hour intervals.
Empty liposomes were used as negative control; and liposomal as well as free muramyl dipeptide (MDP) (50.7 nmol/kg) served as positive control. B30-norAbu-MDP (MT01, structure on page 5) served as additional control. Temperature was measured in 1, 2, 3, 4, 6 and 24 h intervals. The preparation passed the test if the Sum of ΔTmax remained below 1.1° C. (3 rabbits per group)

[3] = system: Friend leukemia virus (FLV); test: Friend leukemia virus infection: survival, TER-119+ cells, spleen
[4] = system: NK sensitive K562 cell line; test: NK cell cytotoxicity of human PBMC, 51Cr-release against K562; assay type: cell-based; settings: range 0.1 μM-100 μM; FIG. 28
Procedure: Ex vivo effects of test compounds on NK cells were evaluated on human peripheral blood mononuclear cells (PBMC). The NK cell cytotoxicity of healthy donors in the presence or absence of test compounds was measured in standard 4 hrs ^51Cr-release assay against NK sensitive K562 cell line in effector (PBMC) to target (K562) ratio 16:1. Test compounds were added at a concentration of 10^−7 mol/ml.
Testing of compounds 23, 24, 32, 33, 40 and 41 for their capacity to induce cell-mediated cytotoxicity of human eripheral blood mononuclear cells (PBMCs) is shown in FIGS. 27 and 28. All donors were healthy. […] The cytotoxicity of untreated controls (30.5%) was renormalized to 100%.

Salmonella enteritidis = test: Stimulation of innate immunity against Salmonella Enteritidis; settings: liposomal, 20 nmol per dose p.o. 72 and 24 h before infection (LD50); 5 mice

## CC[C@H](NC(=O)CO[C@H]1[C@H](O[C@@H]2O[C@H](CO)[C@@H](O)[C@H](O)[C@H]2NC(C)=O)[C@@H](CO)OC(O)[C@@H]1NC(C)=O)C(=O)N[C@H](CCC(=O)O)C(N)=O (some centres unmarked) [norAbu-GMDP]
bone-marrow cells
  Restoration of BM Proliferation in Immunosuppressive Therapy: ++
[1]
  Positive animals (%) (incidence of EAE): 90%
[1]; guinea pigs sensitized with bovine MBP in IFA + compound, FIG. 31
  Th1 stimulation (EAE): superior to MDP and GMDP as Th1 adjuvants

## CC(=O)N[C@H]1[C@H](O[C@H]2[C@H](O[C@H](C)C(=O)N[C@@H](C)C(=O)N[C@H](CCC(=O)O)C(N)=O)[C@@H](NC(C)=O)C(O)O[C@@H]2CO)O[C@H](CO)[C@@H](O)[C@@H]1O (some centres unmarked) [GMDP, glucosaminylmuramyl dipeptide]
bone-marrow cells
  Restoration of BM Proliferation in Immunosuppressive Therapy: ++
[1]
  Positive animals (%) (incidence of EAE): 65%

## CCC(NC(=O)COC1C(O)C(CO)OC(O)C1NC(C)=O)C(=O)NC(CCC(=O)O)C(N)=O (centres unmarked) [norAbu-MDP]
bone-marrow cells
  Restoration of BM Proliferation in Immunosuppressive Therapy: +

## CC(=O)N[C@@H]1[C@@H](O[C@H](C)C(=O)N[C@@H](C)C(=O)N[C@H](CCC(=O)O)C(N)=O)[C@H](O)[C@@H](CO)O[C@H]1O [MDP, muramyldipeptide]
bone-marrow cells
  Restoration of BM Proliferation in Immunosuppressive Therapy: +
[1]
  Positive animals (%) (incidence of EAE): 58%
[2]; MDP positive control 25 μg/kg (50.7 nmol/kg), liposomal or free
  +ΔTmax (Sum of ΔTmax): 2.9 °C

## CCCCCCCCCCCCCCC(CCCCCCCCCCCCCC)C(=O)NCCCC[C@H](NC(=O)CC[C@@H](NC(=O)[C@H](CC)NC(=O)CO[C@H]1[C@H](O[C@@H]2O[C@H](CO)[C@@H](O)[C@H](O)[C@H]2NC(C)=O)[C@@H](CO)OC(O)[C@@H]1NC(C)=O)C(N)=O)C(=O)O (stereo partly drawn) [Compound 41, N-[2-O-(2-Acetamido-2-deoxy-β-D-glucopyranosyl-(1→4)-2-acetamido-2,3-dideoxy-D-glucopyranose-3-yl)-glycoloyl]-L-α-aminobutanoyl-D-isoglutaminyl-L-lysine(2-tetradecylhexadecanoyl)]
[3]; 10 μmol i.p., non-liposomal, control 0%, FIG. 23
  survival, late phase (days 55 and 59), long-term: ensure long-term survival
[3]; 10 μmol i.p., non-liposomal, saline control 82%, FIG. 23
  survival, early phase (day 43): survival rate worse than control
[3]; day 16, FIG. 24
  clonal expansion of TER-119+ erythroleukaemia cells in spleen: pronounced opposite effect
[3]; day 16, FIG. 25
  spleen size (weight): increased spleen size
[2]; liposomal preparations s.c. 100 nmol/kg, passes if below 1.1° C.
  +ΔTmax (Sum of ΔTmax): 0.8 °C
[4]
  dose response of NK cell activity: negative dose response
Salmonella enteritidis
  Day 6 Intest.: clear/infected/dead: 2/3/0
  Day 6 Liver: clear/infected/dead: 2/3/0
  Day 6 Lungs: clear/infected/dead: 4/1/0
  Day 6 Spleen: clear/infected/dead: 2/3/0
  Day 12 Intest.: clear/infected/dead: 1/2/2
  Day 12 Liver: clear/infected/dead: 2/1/2
  Day 12 Lungs: clear/infected/dead: 2/1/2
  Day 12 Spleen: clear/infected/dead: 2/1/2
